# Laboratory results from US20100298141A1, “SUBSTITUTED PYRIDINE N-OXIDE HERBICIDES” (E. I. DU PONT DE NEMOURS AND COMPANY, priority 2007, published 2010).
# Assays:
# southern sandbur = experiment: Test F preemergence test; assay type: in vivo, Cenchrus echinatus; settings: scale 0 to 100
# In short: (§1)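 Test chemicals were formulated in a non-phytotoxic solvent mixture with surfactant and applied preemergence to planted seeds or postemergence to sugarcane plants. Plants were kept in a greenhouse for 14 to 21 days, then visually evaluated against controls.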
# Surinam grass = experiment: Test F preemergence test; assay type: in vivo, Brachiaria decumbens; settings: scale 0 to 100
# In short: as §1
# kochia = experiment: Test F preemergence test; assay type: in vivo, Kochia scoparia; settings: scale 0 to 100
# In short: as §1
# Virginia dayflower = experiment: Test F preemergence test; assay type: in vivo, Commelina virginica; settings: scale 0 to 100
# In short: as §1
# large crabgrass = experiment: Test F preemergence test; assay type: in vivo, Digitaria sanguinalis; settings: scale 0 to 100
# In short: as §1
# field bindweed = experiment: Test F preemergence test; assay type: in vivo, Convolvulus arvensis; settings: scale 0 to 100
# In short: as §1
# common mallow = experiment: Test F preemergence test; assay type: in vivo, Malva sylvestris; settings: scale 0 to 100
# In short: as §1
# annual bluegrass = experiment: Test F preemergence test; assay type: in vivo, Poa annua; settings: scale 0 to 100
# In short: as §1
# Italian ryegrass = experiment: Test F preemergence test; assay type: in vivo, Lolium multiflorum; settings: scale 0 to 100
# In short: as §1
# common groundsel = experiment: Test F preemergence test; assay type: in vivo, Senecio vulgaris; settings: scale 0 to 100
# In short: as §1
# common purslane = experiment: Test F preemergence test; assay type: in vivo, Portulaca oleracea; settings: scale 0 to 100
# In short: as §1
# mustard = experiment: Test F preemergence test; assay type: in vivo, Brassica nigra; settings: scale 0 to 100
# In short: as §1
# quackgrass = experiment: Test F preemergence test; assay type: in vivo, Elytrigia repens; settings: scale 0 to 100
# In short: as §1
# guineagrass = experiment: Test F preemergence test; assay type: in vivo, Panicum maximum; settings: scale 0 to 100
# In short: as §1
# barnyardgrass = experiment: Test F preemergence test; assay type: in vivo, Echinochloa crus-galli
# In short: as §1
# Russian thistle = experiment: Test C pre-/postemergence test; assay type: in vivo, Salsola kali
# In short: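 Seeds were planted and treated preemergence with test chemical in a non-phytotoxic solvent mixture containing surfactant. Postemergence applications of the same formulation went onto plants 2 to 18 cm tall (1- to 4-leaf stage). A dash marks no test result.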
# dallisgrass = experiment: Test F preemergence test; assay type: in vivo, Paspalum dilatatum; settings: scale 0 to 100
# In short: as §1
smiles,measurement,setting,value
CC(Oc1c(C[S+]([O-])c2ccc(Cl)c[n+]2[O-])c(C(F)(F)F)nn1C)C(F)(F)F (centres unmarked) [Compound 87],"Plant response rating, Sandbur","southern sandbur; 16 g ai/ha, preemergence",50
same,Sandbur plant response rating,"southern sandbur; 125 g ai/ha, preemergence",100
same,"Plant response rating, Sandbur","southern sandbur; Preemergence, 62 g ai/ha",100
same,"Plant response rating, Sandbur","southern sandbur; Preemergence, 31 g ai/ha",100
same,"Plant response rating, Surinam Grass","Surinam grass; 16 g ai/ha, preemergence",65
same,Surinam Grass plant response rating,"Surinam grass; 125 g ai/ha, preemergence",100
same,"Plant response rating, Surinam Grass","Surinam grass; Preemergence, 62 g ai/ha",100
same,"Plant response rating, Surinam Grass","Surinam grass; Preemergence, 31 g ai/ha",100
same,"Plant response rating, Kochia","kochia; 16 g ai/ha, preemergence",0
same,Kochia plant response rating,"kochia; 125 g ai/ha, preemergence",50
same,"Plant response rating, Kochia","kochia; Preemergence, 62 g ai/ha",50
same,"Plant response rating, Kochia","kochia; Preemergence, 31 g ai/ha",0
same,"Plant response rating, Dayflower","Virginia dayflower; 16 g ai/ha, preemergence",35
same,Dayflower plant response rating,"Virginia dayflower; 125 g ai/ha, preemergence",100
same,"Plant response rating, Dayflower","Virginia dayflower; Preemergence, 62 g ai/ha",100
same,"Plant response rating, Dayflower","Virginia dayflower; Preemergence, 31 g ai/ha",100
same,"Plant response rating, Crabgrass, Large","large crabgrass; 16 g ai/ha, preemergence",30
same,"Crabgrass, Large plant response rating","large crabgrass; 125 g ai/ha, preemergence",100
same,"Plant response rating, Crabgrass, Large","large crabgrass; Preemergence, 62 g ai/ha",95
same,"Plant response rating, Crabgrass, Large","large crabgrass; Preemergence, 31 g ai/ha",65
same,"Plant response rating, Field Bindweed","field bindweed; 16 g ai/ha, preemergence",0
same,Field Bindweed plant response rating,"field bindweed; 125 g ai/ha, preemergence",40
same,"Plant response rating, Field Bindweed","field bindweed; Preemergence, 62 g ai/ha",20
same,"Plant response rating, Field Bindweed","field bindweed; Preemergence, 31 g ai/ha",0
same,"Plant response rating, Mallow","common mallow; 16 g ai/ha, preemergence",50
same,Mallow plant response rating,"common mallow; 125 g ai/ha, preemergence",100
same,"Plant response rating, Mallow","common mallow; Preemergence, 62 g ai/ha",100
same,"Plant response rating, Mallow","common mallow; Preemergence, 31 g ai/ha",75
same,"Plant response rating, Bluegrass","annual bluegrass; 16 g ai/ha, preemergence",35
same,Bluegrass plant response rating,"annual bluegrass; 125 g ai/ha, preemergence",100
same,"Plant response rating, Bluegrass","annual bluegrass; Preemergence, 62 g ai/ha",80
same,"Plant response rating, Bluegrass","annual bluegrass; Preemergence, 31 g ai/ha",70
same,"Plant response rating, Ryegrass, Italian","Italian ryegrass; 16 g ai/ha, preemergence",100
same,"Ryegrass, Italian plant response rating","Italian ryegrass; 125 g ai/ha, preemergence",100
same,"Plant response rating, Ryegrass, Italian","Italian ryegrass; Preemergence, 62 g ai/ha",100
same,"Plant response rating, Ryegrass, Italian","Italian ryegrass; Preemergence, 31 g ai/ha",100
same,"Plant response rating, Groundsel","common groundsel; 16 g ai/ha, preemergence",0
same,Groundsel plant response rating,"common groundsel; 125 g ai/ha, preemergence",65
same,"Plant response rating, Groundsel","common groundsel; Preemergence, 62 g ai/ha",0
same,"Plant response rating, Groundsel","common groundsel; Preemergence, 31 g ai/ha",0
same,"Plant response rating, Purslane","common purslane; 16 g ai/ha, preemergence",0
same,Purslane plant response rating,"common purslane; 125 g ai/ha, preemergence",100
same,"Plant response rating, Purslane","common purslane; Preemergence, 62 g ai/ha",70
same,"Plant response rating, Purslane","common purslane; Preemergence, 31 g ai/ha",20
same,"Plant response rating, Black Mustard","mustard; 16 g ai/ha, preemergence",0
same,Black Mustard plant response rating,"mustard; 125 g ai/ha, preemergence",100
same,"Plant response rating, Black Mustard","mustard; Preemergence, 62 g ai/ha",90
same,"Plant response rating, Black Mustard","mustard; Preemergence, 31 g ai/ha",30
same,"Plant response rating, Quackgrass","quackgrass; 16 g ai/ha, preemergence",60
same,Quackgrass plant response rating,"quackgrass; 125 g ai/ha, preemergence",90
same,"Plant response rating, Quackgrass","quackgrass; Preemergence, 62 g ai/ha",80
same,"Plant response rating, Quackgrass","quackgrass; Preemergence, 31 g ai/ha",60
same,"Plant response rating, Guineagrass","guineagrass; 16 g ai/ha, preemergence",90
same,Guineagrass plant response rating,"guineagrass; 125 g ai/ha, preemergence",100
same,"Plant response rating, Guineagrass","guineagrass; Preemergence, 62 g ai/ha",100
same,"Plant response rating, Guineagrass","guineagrass; Preemergence, 31 g ai/ha",100
same,"Plant response rating, Barnyardgrass","barnyardgrass; 16 g ai/ha, preemergence, scale 0 to 100 (0 no effect, 100 complete control)",60
same,Barnyardgrass plant response rating,"barnyardgrass; 125 g ai/ha, preemergence, scale 0 to 100",100
same,"Plant response rating, Barnyardgrass","barnyardgrass; Preemergence, 62 g ai/ha, scale 0 to 100",100
same,"Plant response rating, Barnyardgrass","barnyardgrass; Preemergence, 31 g ai/ha, scale 0 to 100",75
same,Russian Thistle plant response rating,"Russian thistle; 62 g ai/ha, Preemergence, scale 0 to 100",100
same,Russian Thistle plant response rating,"Russian thistle; 125 g ai/ha, preemergence, scale 0 (no effect) to 100 (complete control)",100
same,"Plant response rating, Russian Thistle","Russian thistle; Preemergence, 31 g ai/ha, scale 0 to 100 (0 no effect, 100 complete control)",100
same,Russian Thistle plant response rating,"Russian thistle; preemergence, 250 g ai/ha, scale 0 (no effect) to 100 (complete control)",100
same,"Plant response rating, Dallisgrass","dallisgrass; 16 g ai/ha, preemergence",0
same,Dallisgrass plant response rating,"dallisgrass; 125 g ai/ha, preemergence",80
same,"Plant response rating, Dallisgrass","dallisgrass; Preemergence, 62 g ai/ha",60
same,"Plant response rating, Dallisgrass","dallisgrass; Preemergence, 31 g ai/ha",50
